Data set [1] deals with T1, FhCL2 (Fasciola hepatica, UniProt Q7JNQ8). Briefly: Hydrolysis of fluorogenic peptidyl-NHMec substrates by recombinant FhCL2. The format is biochemical. To be noted: FhCL2 compared to FhCL1. As to the method:
(§1) Initial rates were obtained at 37°C over a range of substrate concentrations spanning Km values (0.2–200 µM) and at fixed enzyme concentrations (0.5–5 nM). Assays were performed in 100 mM sodium phosphate buffer (pH 6.0) containing 1 mM DTT and 1 mM EDTA. Rate constants for the inactivation of the Fasciola enzymes by Z-Phe-Ala-CHN2 and cathepsin K inhibitor II were determined from progress curves in the presence of substrate as previously described.

Data set [2] addresses T2, FhCL3 (Fasciola hepatica, UniProt B3TM67). As to the kind of experiment: Hydrolysis of fluorogenic peptidyl-NHMec substrates by recombinant FhCL3. The format is biochemical. The note with it: for kcat/Km fold increase over FhCL1 / kcat/Km fold lower than FhCL1: FhCL3 compared to FhCL1; for fold better cleavage efficiency of FhCL3 than FhCL2: FhCL3 compared to FhCL2. On the procedure: as §1

Data set [3] addresses T2, FhCL3. Briefly: Inactivation of recombinant FhCL3 by inhibitors (progress curves in presence of substrate). It counts as biochemical. On the procedure: as §1
The target of the next data set is T3, FhCL1 (Fasciola hepatica, UniProt Q7JNQ9).
T3 construct: His tag (inferred from Ni-NTA purification) (C); made in house; host or cells: Pichia pastoris
T3 sequence (Q7JNQ9 entry or part of it): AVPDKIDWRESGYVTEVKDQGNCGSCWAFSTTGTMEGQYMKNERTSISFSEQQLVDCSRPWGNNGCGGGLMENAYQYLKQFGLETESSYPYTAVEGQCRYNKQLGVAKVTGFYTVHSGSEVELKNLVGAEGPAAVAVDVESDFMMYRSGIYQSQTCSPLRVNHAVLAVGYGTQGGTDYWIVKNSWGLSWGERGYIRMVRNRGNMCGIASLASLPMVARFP
Briefly: Inactivation of recombinant FhCL1 by inhibitors (progress curves in presence of substrate). The format is biochemical. To be noted: for Ki: FhCL1. As to the method:
as §1

The target in data set [4] is T1, FhCL2. Briefly: Inactivation of recombinant FhCL2 by inhibitors (progress curves in presence of substrate). The format is biochemical. On the procedure: as §1
Data set [5] concerns Cc1cc(=O)oc2cc(NC(=O)[C@H](CCCNC(=N)N)NC(=O)[C@H](CC(C)C)NC(=O)OCc3ccccc3)ccc12. As to the kind of experiment: Hydrolysis of fluorogenic peptidyl-NHMec substrates by recombinant FhCL1. It counts as biochemical, Fasciola hepatica. To be noted: other: FhCL1, pH 6.0, 37°C. On the procedure: as §1
Data set [6] deals with Cc1cc(=O)oc2cc(NC(=O)[C@H](CCCNC(=N)N)NC(=O)[C@@H](NC(=O)[C@@H](NC(=O)OCc3ccccc3)C(C)C)C(C)C)ccc12. Described as above. The format is biochemical, Fasciola hepatica. The note with it: other: FhCL1, pH 6.0, 37°C. As to the method: as §1
For data set [7], the system named is Cc1cc(=O)oc2cc(NC(=O)[C@H](CCCNC(=N)N)NC(=O)[C@@H]3CCCN3C(=O)[C@@H](NC(=O)OC(C)(C)C)C(C)C)ccc12. The description is as above. It counts as biochemical, Fasciola hepatica. To be noted: other: FhCL1, pH 6.0, 37°C. As to the method:
as §1

The subject of data set [8] is Cc1ccc(S(=O)(=O)NCC(=O)N2CCC[C@H]2C(=O)N[C@@H](CCCNC(=N)N)C(=O)Nc2ccc3c(C)cc(=O)oc3c2)cc1. Described as above. It counts as biochemical, Fasciola hepatica. The note with it: other: FhCL1, pH 6.0, 37°C. On the procedure:
as §1

Data set [9] relates to Cc1cc(=O)oc2cc(NC(=O)[C@H](CCCNC(=N)N)NC(=O)[C@H](Cc3ccccc3)NC(=O)OCc3ccccc3)ccc12. The data set is described as above. It counts as biochemical, Fasciola hepatica. The note with it: other: FhCL1, pH 6.0, 37°C. As to the method: as §1
Data set [10] has as its system Cc1cc(=O)oc2cc(NC(=O)[C@H](CCCNC(=N)N)NC(=O)[C@@H]3CCCN3C(=O)CNC(=O)[C@H](C)NC(=O)OC(C)(C)C)ccc12. The data set is described as above. The format is biochemical, Fasciola hepatica. The note with it: other: FhCL1, pH 6.0, 37°C. On the procedure:
as §1

In data set [11] the test system is Cc1ccc(S(=O)(=O)NCC(=O)N2CCC[C@H]2C(=O)N[C@@H](CCCCN)C(=O)Nc2ccc3c(C)cc(=O)oc3c2)cc1. Described as above. The format is biochemical, Fasciola hepatica. To be noted: other: FhCL1, pH 6.0, 37°C. On the procedure:
as §1

Data set [12] concerns Cc1cc(=O)oc2cc(NC(=O)[C@H](CCCCN)NC(=O)[C@H](CC(C)C)NC(=O)[C@@H](NC(=O)OC(C)(C)C)C(C)C)ccc12. The description is as above. It counts as biochemical, Fasciola hepatica. To be noted: other: FhCL1, pH 6.0, 37°C. On the procedure:
as §1

Read-outs that look alike come from different tables or passages of the source. Where a SMILES comes first, the peptide text is derived from it. The star is where a group is joined. AMC = Cc1cc(=O)oc2cc(N*)ccc12; Tos = Cc1ccc(S(=O)(=O)*)cc1; Cbz = O=C(OCc1ccccc1)*; Boc = CC(C)(C)OC(=O)*

For orientation: Km means the substrate concentration at which the rate is half of its maximum. By kcat is commonly meant the maximal rate divided by the concentration of active sites. In general, kcat/Km refers to the turnover number divided by the Michaelis constant.

T1 sequence (Q7JNQ8 entry or part of it): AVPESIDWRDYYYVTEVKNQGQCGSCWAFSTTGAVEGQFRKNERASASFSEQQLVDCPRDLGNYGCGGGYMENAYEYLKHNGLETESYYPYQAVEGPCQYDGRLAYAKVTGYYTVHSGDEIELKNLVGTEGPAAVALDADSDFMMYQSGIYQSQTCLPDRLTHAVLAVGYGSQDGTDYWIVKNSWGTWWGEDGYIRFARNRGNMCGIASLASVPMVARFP
T2 sequence (B3TM67 entry or part of it): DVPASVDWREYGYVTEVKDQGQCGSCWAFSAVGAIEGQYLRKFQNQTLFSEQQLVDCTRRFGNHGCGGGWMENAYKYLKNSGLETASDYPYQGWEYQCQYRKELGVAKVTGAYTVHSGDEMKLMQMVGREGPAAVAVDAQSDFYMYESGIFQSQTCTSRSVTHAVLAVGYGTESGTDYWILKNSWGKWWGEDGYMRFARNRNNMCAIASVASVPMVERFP

Regarding `Cc1cc(=O)oc2cc(NC(=O)[C@H](CCCN=C(N)N)NC(=O)[C@@H]3CCCN3C(=O)CNC(=O)[C@H](C)NC(=O)OC(C)(C)C)ccc12` [Boc-AGPR-NHMec, Boc-Ala-Gly-Pro-Arg-NHMec] (Boc-AGPR-{AMC}), the “kcat/Km fold increase over FhCL1” value at FhCL2 [1] turned out to be 86 fold; on FhCL3 [2], 90 fold.
For `Cc1cc(=O)oc2cc(NC(=O)[C@H](CCCN=C(N)N)NC(=O)[C@@H]3CCCN3C(=O)[C@@H](NC(=O)OC(C)(C)C)C(C)C)ccc12` [Boc-VPR-NHMec, Boc-Val-Pro-Arg-NHMec] (Boc-Val-Pro-Arg-{AMC}) the same measures were 44 fold and 3 fold.
Consider `CC(C)C[C@H](NC(=O)OCc1ccccc1)C(=O)NNC(=O)NNC(=O)[C@H](CC(C)C)NC(=O)[C@H](Cc1ccccc1)NC(=O)OC(C)(C)C` [Cathepsin K inhibitor II, Z-LNHNHCONHNHLF-Boc], for which the “fold less effective against FhCL3 compared to FhCL1” value at FhCL3 [3] (FhCL3 vs FhCL1) was 14 fold. Also, on FhCL3 [3] (FhCL3 vs FhCL2), the “fold less effective against FhCL3 compared to FhCL2” value is listed as 20 fold. The Ki at FhCL1 (Ki(app)) came to 12.2 nM; at FhCL1 (Ki), 0.63 nM; on FhCL2 [4], 0.46 nM; on FhCL2 [4] (read-out: Ki(app)) it was 4.8 nM.
On to `Cc1ccc(S(=O)(=O)NCC(=O)N2CCC[C@H]2C(=O)N[C@@H](CCCCN)C(=O)Nc2ccc3c(C)cc(=O)oc3c2)cc1` [Tos-GPK-NHMec, Tos-Gly-Pro-Lys-NHMec] (Tos-Gly-Pro-Lys-{AMC}), for which the “kcat/Km fold increase over FhCL1” value at FhCL2 [1] amounted to 22 fold. On FhCL3 [2], the “kcat/Km fold increase over FhCL1” value was 60 fold and the “fold better cleavage efficiency of FhCL3 than FhCL2” value worked out at 3 fold.
Take `Cc1ccc(S(=O)(=O)NCC(=O)N2CCC[C@H]2C(=O)N[C@@H](CCCN=C(N)N)C(=O)Nc2ccc3c(C)cc(=O)oc3c2)cc1` [Tos-GPR-NHMec, Tos-Gly-Pro-Arg-NHMec] (Tos-Gly-Pro-Arg-{AMC}): the “kcat/Km fold increase over FhCL1” value came out at 28 fold on FhCL2 [1] and 142 fold on FhCL3 [2]. For the same compound, the “fold better cleavage efficiency of FhCL3 than FhCL2” value at FhCL3 [2] amounted to 5 fold.
For the compound `Cc1cc(=O)oc2cc(NC(=O)[C@H](CCCN=C(N)N)NC(=O)[C@H](Cc3ccccc3)NC(=O)OCc3ccccc3)ccc12` [Z-FR-NHMec, Z-Phe-Arg-NHMec] (Cbz-Phe-Arg-{AMC}), the “kcat/Km fold lower than FhCL1” value on FhCL2 [1] is given as 6 fold; on FhCL3 [2] it was 65 fold.
For `Cc1cc(=O)oc2cc(NC(=O)[C@H](CCCN=C(N)N)NC(=O)[C@H](CC(C)C)NC(=O)OCc3ccccc3)ccc12` [Z-LR-NHMec, Z-Leu-Arg-NHMec], in that order: 3.5 fold and 66 fold.
Take `C[C@H](NC(=O)[C@H](Cc1ccccc1)NC(=O)OCc1ccccc1)C(=O)C=[N+]=[N-]` [Z-Phe-Ala-CHN2]: the “rate of inactivation of FhCL3, fold lower” value at FhCL3 [3] (FhCL3 in contrast to FhCL1 and FhCL2) is 20 fold. Further, the “rate of inactivation of FhCL1, fold higher than that of FhCL2” value at FhCL1 (FhCL1 compared to FhCL2) is listed as around 2 fold. Besides, the Ki at FhCL1 (Ki(app)) is 31.4 nM; on FhCL1 (Ki), 1.62 nM; on FhCL2 [4], 5.32 nM; at FhCL2 [4] (read-out: Ki(app)), 55.2 nM.
In the case of FhCL1 (Fasciola hepatica), the Km in [5] came to 1.09 µM; in data set [6], 2.84 µM; in data set [7], 22 µM; in [8], 27.2 µM; in [9], 1.9 µM; in [10], 18.8 µM. Besides, the values for the Michaelis-Menten constant (Km) in data set [11] and in data set [12] were 17.42 µM and 2.5 µM, respectively. The kcat in data set [5] came to 1.63 s⁻¹; in [6], 0.021 s⁻¹; in [7] it was 0.01 s⁻¹; in data set [8], 0.02 s⁻¹; in [9], 0.12 s⁻¹; in data set [10], 0.01 s⁻¹. For the same compound, the results for the kcat in [11] and in [12] were 0.01 s⁻¹ and 0.14 s⁻¹, respectively. Further, the kcat/Km in data set [5] was found to be 1.49e+06 M⁻¹ s⁻¹; in [6] it was 7460 M⁻¹ s⁻¹; in data set [7], 479 M⁻¹ s⁻¹; in [8], 672 M⁻¹ s⁻¹; in [9], 64900 M⁻¹ s⁻¹; in data set [10] it was 674 M⁻¹ s⁻¹. For the same compound, the kcat/Km amounted to 612 M⁻¹ s⁻¹ in data set [11] and 54300 M⁻¹ s⁻¹ in data set [12].

(Values after publication PMC3071364, “Collagenolytic Activities of the Major Secreted Cathepsin L Peptidases Involved in the Virulence of the Helminth Pathogen, Fasciola hepatica” (PLoS Neglected Tropical Diseases, 2011).)
